Test results from patent US10220100B2, “Halogenated phenols for diagnostics, antioxidant protection and drug delivery” (priority 2011, dated 2019).

Experiments:
[1] = Spontaneous dehalogenation and ether cleavage in buffered aqueous solution exposed to sunlight; type: physicochemical; conditions: about 1 mM in carbonate buffer (pH 8.0), sunlight for about one hour; yellow/orange solution, iodide released
Excerpt: In contrast to reductive deiodination, spontaneous dehalogenation (e.g., deiodination) of a halogentated phenol ring in the presence of an oxidizing agent(s) and/or free radical(s) with cleavage of a chemical linkage, such as an ether linkage, etc., between the phenol ring and a conjugated compound has not been described. According to the present invention, cleavage of the ether linkage between the aromatic rings of thyroid hormone may form visibly colored quinone and iodine-containing products in buffered aqueous solutions in vitro, and this ether cleavage reaction may be accelerated under basic pH conditions and with exposure to ionizing radiation or light. These conditions favor the increased formation of oxidizing agents and/or free radicals, which are believed to promote the reaction. […] A quinone and an iodotyrosine product are also formed by cleavage of the ether linkage during the reaction. According to embodiments of the present invention, a spontaneous reaction of dehalogenation and cleavage of a chemical bond is proposed for the targeted delivery and release of a drug compound at or to sites of inflammation or disease. This spontaneous reaction is further proposed as a basis for scavenging free radicals and/or oxidative agents (FROS) as well as for the creation of a detectable compound(s) that may be used for diagnostic purposes.

[2] = Cleavage of the C—C bond during the oxidative dehalogenation reaction; type: physicochemical; conditions: presence of free radicals and/or oxidative agents
Excerpt: It has also been discovered that other types of bonds or linkages may also be cleaved by oxidative or free radical-mediated dehalogenation of the phenol ring. For example, as described herein, it has now been observed that a carbonyl linkage, a nitrogen linkage, a sulfinyl linkage and possibly a C—C bond on the phenol ring may also be cleaved by the oxidative dehalogenation reaction. These bonds are also considered stable, and their cleavage in connection with the dehalogenation reaction is surprising as well. One caveat with the C—C bond or linkage is that depending on the particular starting compound structure and the substituents or groups attached to the halogenated phenol ring via the C—C bond, the C—C bond or linkage may or may not be generally cleaved during or following the dehalogenation reaction (see below). […] However, other compounds do become cleaved. It is important to note that whether a C—C bond of a particular starting compound is “cleavable,” or becomes cleaved, may not be all-or-nothing (i.e., the C—C bond may be considered non-cleavable even though a small or minute amount of cleavage may occur, and vice versa). Thus, the amount or percentage of cleavage may be partial with the alternatively cleaved or non-cleaved product being possibly undetected or minute. […]

[3] = test system: thyroid hormone activity; conditions: cited from earlier work
[4] = test system: spontaneous mammary tumors; conditions: 10 mg by gavage; X-ray imaging about two hours after; mice with spontaneous tumors; same mice before treatment showed no foci
Excerpt: As described above, oxidative foci or tumors may be identified by X-ray radiographic imaging of animals following administration of an indigogenic compound of the present invention. The radio-opaque indigo-like product formed and deposited with residence time in FROS-containing tumor tissues may then be detected.
In this example, female C3H/HeN mice were obtained as multiparous retired breeders (i.e., after 3 to 4 litters) that were positive for a mammary tumor virus. […] Mice showing spontaneous tumors were given 10 mg of 5-Iodo-Indoxyl-3′,5′-Diiodo-4′-hydroxy ether substrate (product of Example 4) by gavage. These mice were then subjected to X-ray imaging of the tumors about two hours after being fed the iodo-indigogenic compound. […] When developed, the X-ray film appears dark in areas where more transmission occurs and light in areas where less transmission occurs.

[5] = test system: sites of the wound or injury; conditions: mice administered the compound, small injuries (cuts, scratches); data not shown

N[C@@H](Cc1cc(I)c(Oc2cc(I)c(O)c(I)c2)c(I)c1)C(=O)O [thyroxine]
cleavage of the ether linkage [1]: the ether linkage is broken spontaneously

N[C@@H](Cc1ccc(O)c(I)c1)C(=O)O [mono-iodotyrosine, 3-iodo-4-hydroxy-L-phenylalanine]
cleavage of C—C bond with the dehalogenation reaction [2]: generally not to be cleaved | cleavage of C—C bond with the dehalogenation reaction ([2]; listed as MIT): generally not be cleaved

N[C@@H](Cc1ccc(Oc2cc(I)c(O)c(I)c2)c(I)c1)C(=O)O [Reverse T3, 3,3′,5′-triiodothyronine]
thyroid hormone activity [3]: no measurable thyroid hormone activity

Oc1c(I)cc(Oc2c[nH]c3ccc(I)cc23)cc1I [5-Iodo-Indolyl-3′,5′-Diiodo-4′-hydroxyl-p-Phenol Ether]
radio-opaque tumor regions or foci by X-ray [4]: radio-opaque tumor regions or foci | X-ray detection at sites of wound or injury [5]: strong detection was observed at the sites of the wound or injury
